We go through four compounds from patent publication US4267180A, “Novel antibacterial amide compounds and process means for producing the same” (Warner-Lambert Company, priority 1980, dated 1981).

A value given as a limit tells only on which side of the number the result lay.

Assay in all cases: Minimal Inhibitory Concentration, in vitro
Common to all, as to format: cell-based
What all share (set-up): unit not given here

Assay [1] relates to Serratia Marcescens IMM-16. The source says:
(§1) The compounds of the invention are new chemical compounds that are useful as pharmacological agents and especially as broad spectrum antibacterial agents. They are active in vitro against strains of both gram-positive and gram-negative bacteria.
(§2) Minimal Inhibitory Concentration

For another assay, the system named is Staph Aureus UC-76.
Description: as §1, §2

For assay [2], the system named is Pseudomonas Aeruginosa #28.
Description: as §1, §2

For another assay, the system named is Proteus Vulgaris 1810.
Description: as §1, §2

The test system of assay [3] is Enterobacter Cloacae IMM-11.
Description: as §1, §2

The test system of assay [4] is Klebsiella Pneumoniae MGH-2.
Description: as §1, §2

The test system of assay [5] is Pseudomonas Aeruginosa UI-18.
Description: as §1, §2

Regarding `CC(=O)NC(C)(C)C(=O)Nc1ccc(-c2ncc(C(=O)N[C@@H](C(=O)N[C@@H]3C(=O)N4[C@@H]3SC(C)(C)[C@@H]4C(=O)O)c3ccc(O)cc3)c(O)n2)cc1` [N-Acetylamino Isobutyryl, N-[2-[4-(alpha-Acetamidoisobutyrylamino)phenyl]-4-hydroxy-5-pyrimidinylcarbonyl]amoxicillin], the “Minimal Inhibitory Concentration” value is listed as 12.5 in assay [1]; 1.6 in the assay on Staph Aureus UC-76; 0.8 in assay [2]; 0.4 with Proteus Vulgaris 1810; 6.3 in assay [3]; greater than 50 in assay [4]. Also, the “Minimal Inhibitory Concentration” value in assay [5] stood at 0.8.
In the case of `CC1(C)S[C@@H]2[C@H](NC(=O)[C@H](NC(=O)c3cnc(-c4ccc(NC(=O)CNC(N)=O)cc4)nc3O)c3ccc(O)cc3)C(=O)N2[C@H]1C(=O)O` [N-Carbamoyl Glycyl, N-[2-[4-(N-Carbamoylglycylamino)phenyl]-4-hydroxy-5-pyrimidinylcarbonyl]amoxicillin], the “Minimal Inhibitory Concentration” value turned out to be 25 in assay [1]; 0.8 in the assay on Staph Aureus UC-76; 0.8 in assay [2]; 3.1 in the assay on Proteus Vulgaris 1810; 25 in assay [3]; 50 in assay [4]. Also, the “Minimal Inhibitory Concentration” value in assay [5] is on record as 1.6.
Consider `CCC(=O)N[C@@H](C)C(=O)Nc1ccc(-c2ncc(C(=O)N[C@@H](C(=O)N[C@@H]3C(=O)N4[C@@H]3SC(C)(C)[C@@H]4C(=O)O)c3ccc(O)cc3)c(O)n2)cc1` [N-Propionyl-L-Alanyl, N-[2-[4-(N-Propionyl-L-alanylamino)phenyl]-4-hydroxy-5-pyrimidinylcarbonyl]amoxicillin], for which the “Minimal Inhibitory Concentration” value in assay [1] is 12.5; in the assay on Staph Aureus UC-76, 0.8; in assay [2] it was 1.6; with Proteus Vulgaris 1810, 3.1; in assay [3], 3.1; in assay [4], 50. Further, the “Minimal Inhibitory Concentration” value in assay [5] is listed as 0.8.
Consider “N-[2-[4-(N-Acetyl-DL-glutaminylamino)phenyl]-4-hydroxy-5-pyrimidinylcarbonyl]amoxicillin [N-Acetyl-L-Glutaminyl]”, for which the “Minimal Inhibitory Concentration” value in assay [1] was 25; with Staph Aureus UC-76, 3.1; in assay [2], 3.1; with Proteus Vulgaris 1810, 0.8; in assay [3], 12.5; in assay [4], greater than 50. Also, in assay [5], the “Minimal Inhibitory Concentration” value turned out to be 3.1.
